Experimental data taken from PubChem BioAssay (NCI).
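GI50 marks 50% less growth. TGI: total growth inhibition.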

What was measured:
Assay in all cases: NCI-60 cell line screen, 384-well format
MDA-MB-468 breast = test system: MDA-MB-468 breast
COLO 205 colon = test system: COLO 205 colon
IGROV1 ovarian = test system: IGROV1 ovarian
LOX IMVI melanoma = test system: LOX IMVI melanoma
SR leukemia = test system: SR leukemia
NCI-H23 lung = test system: NCI-H23 lung
SK-MEL-5 melanoma = test system: SK-MEL-5 melanoma
SK-OV-3 ovarian = test system: SK-OV-3 ovarian
NCI-H322M lung = test system: NCI-H322M lung
DU-145 prostate = test system: DU-145 prostate
MALME-3M melanoma = test system: MALME-3M melanoma
HS 578T breast = test system: HS 578T breast
NCI-H460 NSCLC = test system: NCI-H460 NSCLC
A549 NSCLC = test system: A549 NSCLC
OVCAR-8 ovarian = test system: OVCAR-8 ovarian
MOLT-4 leukemia = test system: MOLT-4 leukemia
T-47D breast = test system: T-47D breast
M14 melanoma = test system: M14 melanoma
CAKI-1 renal = test system: CAKI-1 renal
786-0 renal = test system: 786-0 renal
KM12 colon = test system: KM12 colon
SF-539 CNS = test system: SF-539 CNS
MCF7 breast = test system: MCF7 breast
BT-549 breast = test system: BT-549 breast
K-562 leukemia = test system: K-562 leukemia
SNB-75 CNS = test system: SNB-75 CNS
UACC-62 melanoma = test system: UACC-62 melanoma
HCC-2998 colon = test system: HCC-2998 colon
PC-3 prostate = test system: PC-3 prostate
UO-31 renal = test system: UO-31 renal
SW-620 colon = test system: SW-620 colon
RXF 393 renal = test system: RXF 393 renal
MDA-MB-231 breast = test system: MDA-MB-231 breast
OVCAR-5 ovarian = test system: OVCAR-5 ovarian
HT29 colon = test system: HT29 colon
A498 renal = test system: A498 renal
OVCAR-3 ovarian = test system: OVCAR-3 ovarian
HCT-15 colon = test system: HCT-15 colon
SF-295 CNS = test system: SF-295 CNS
U251 glioblastoma = test system: U251 glioblastoma
HL-60(TB) leukemia = test system: HL-60(TB) leukemia
HCT-116 colon = test system: HCT-116 colon
RPMI-8226 leukemia = test system: RPMI-8226 leukemia
SK-MEL-28 melanoma = test system: SK-MEL-28 melanoma
CCRF-CEM leukemia = test system: CCRF-CEM leukemia
MDA-MB-435 melanoma = test system: MDA-MB-435 melanoma
ACHN renal = test system: ACHN renal
HOP-62 NSCLC = test system: HOP-62 NSCLC
SF-268 CNS = test system: SF-268 CNS
TK-10 renal = test system: TK-10 renal
SN12C renal = test system: SN12C renal
SNB-19 CNS = test system: SNB-19 CNS
NCI-H522 lung = test system: NCI-H522 lung
UACC-257 melanoma = test system: UACC-257 melanoma
NCI/ADR-RES ovarian = test system: NCI/ADR-RES ovarian
NCI-H226 lung = test system: NCI-H226 lung
HOP-92 NSCLC = test system: HOP-92 NSCLC
EKVX NSCLC = test system: EKVX NSCLC
OVCAR-4 ovarian = test system: OVCAR-4 ovarian

`O=c1[nH]cc(F)c(=O)[nH]1` gave a GI50 (MDA-MB-468 breast) of 41.8 µM, a TGI (MDA-MB-468 breast) greater than 86.2 µM and a GI50 (COLO 205 colon) of 1.45 µM. For the same molecule, the GI50 (IGROV1 ovarian) was greater than 30.6 µM, the GI50 (LOX IMVI melanoma) was 17.1 µM and the GI50 (SR leukemia) was 2 µM. For the same molecule, the TGI (SR leukemia) was 6.89 µM, the GI50 (NCI-H23 lung) was 29.6 µM and the GI50 (SK-MEL-5 melanoma) was 5.77 µM. For the same molecule, the GI50 (SK-OV-3 ovarian) was greater than 69.9 µM, the GI50 (NCI-H322M lung) was 32.7 µM and the GI50 (DU-145 prostate) was 5.49 µM. The GI50 (MALME-3M melanoma) was 85.5 µM, the GI50 (HS 578T breast) was 12.1 µM and the GI50 (NCI-H460 NSCLC) was 3.23 µM. For the same molecule, the TGI (NCI-H460 NSCLC) was 38.8 µM, the GI50 (A549 NSCLC) was 2.21 µM and the GI50 (OVCAR-8 ovarian) was 37.2 µM. It also gave a GI50 (MOLT-4 leukemia) of 1.64 µM, a TGI (MOLT-4 leukemia) of 3.26 µM and a GI50 (T-47D breast) of 78.3 µM. For the same molecule, the GI50 (M14 melanoma) was 65.7 µM, the GI50 (CAKI-1 renal) was 9.98 µM and the GI50 ([…]-0 renal) was 9.77 µM. For the same molecule, the GI50 (KM12 colon) was 6.5 µM, the GI50 (SF-539 CNS) was 4.2 µM and the GI50 (MCF7 breast) was 2.58 µM. The GI50 (BT-549 breast) was 3.96 µM, the GI50 (K-562 leukemia) was 18.7 µM and the GI50 (SNB-75 CNS) was 7.12 µM. For the same molecule, the TGI (SNB-75 CNS) was greater than 29.7 µM, the GI50 (UACC-62 melanoma) was 8.73 µM and the GI50 (HCC-2998 colon) was 13.6 µM. For the same molecule, the GI50 (PC-3 prostate) was greater than 80.5 µM, the GI50 (UO-31 renal) was 8.23 µM and the GI50 (SW-620 colon) was 25 µM. The GI50 (RXF 393 renal) was 27.7 µM, the GI50 (MDA-MB-231 breast) was greater than 89.7 µM and the GI50 (OVCAR-5 ovarian) was 13.1 µM. It also gave a GI50 (HT29 colon) of 7.03 µM, a GI50 (A498 renal) of 5.89 µM and a GI50 (OVCAR-3 ovarian) of 6.27 µM. For the same molecule, the TGI (OVCAR-3 ovarian) was greater than 86.5 µM, the GI50 (HCT-15 colon) was 5.28 µM and the GI50 (SF-295 CNS) was 22 µM. For the same molecule, the GI50 (U251 glioblastoma) was 22 µM, the GI50 (HL-60(TB) leukemia) was 11 µM and the GI50 (HCT-116 colon) was 3.94 µM. For the same molecule, the GI50 (RPMI-8226 leukemia) was 0.162 µM, the TGI (RPMI-8226 leukemia) was 0.476 µM and the GI50 (SK-MEL-28 melanoma) was 19.3 µM. The GI50 (CCRF-CEM leukemia) was greater than 27.9 µM, the GI50 (MDA-MB-435 melanoma) was 16.8 µM and the GI50 (ACHN renal) was 11.6 µM. The GI50 (HOP-62 NSCLC) was 13.6 µM, the GI50 (SF-268 CNS) was 45.2 µM and the GI50 (TK-10 renal) was 35.1 µM. For the same molecule, the GI50 (SN12C renal) was 14.5 µM, the GI50 (SNB-19 CNS) was 51.7 µM and the GI50 (NCI-H522 lung) was 55.6 µM.
In the case of `Cc1sc2c(c1C)C(c1ccc(Cl)cc1)=N[C@@H](CC(=O)Nc1ccc(O)cc1)c1nnc(C)n1-2`, the GI50 (MDA-MB-468 breast) is reported as 0.175 µM, the TGI (MDA-MB-468 breast) is reported as 1.94 µM and the GI50 (UACC-257 melanoma) is reported as 0.174 µM. It also gave a TGI (UACC-257 melanoma) of 16.4 µM, a GI50 (COLO 205 colon) of 0.164 µM and a TGI (COLO 205 colon) of 2.09 µM. It also gave a GI50 (IGROV1 ovarian) of 0.158 µM, a TGI (IGROV1 ovarian) of 4.13 µM and a GI50 (LOX IMVI melanoma) of 0.108 µM. For the same molecule, the TGI (LOX IMVI melanoma) was 0.266 µM, the GI50 (SR leukemia) was 0.0117 µM and the TGI (SR leukemia) was 0.0588 µM. The GI50 (NCI-H23 lung) was 0.213 µM, the TGI (NCI-H23 lung) was 2.86 µM and the GI50 (SK-MEL-5 melanoma) was 0.304 µM. The TGI (SK-MEL-5 melanoma) was 10.7 µM, the GI50 (SK-OV-3 ovarian) was 0.173 µM and the TGI (SK-OV-3 ovarian) was 5.48 µM. It also gave a GI50 (NCI-H322M lung) of 0.219 µM, a TGI (NCI-H322M lung) of 14.3 µM and a GI50 (DU-145 prostate) of 1.17 µM. The TGI (DU-145 prostate) was 28 µM, the GI50 (MALME-3M melanoma) was 0.194 µM and the TGI (MALME-3M melanoma) was 3.6 µM. The GI50 (HS 578T breast) was 0.0372 µM, the TGI (HS 578T breast) was 0.355 µM and the GI50 (NCI-H460 NSCLC) was 0.337 µM. For the same molecule, the TGI (NCI-H460 NSCLC) was 14.9 µM, the GI50 (A549 NSCLC) was 0.596 µM and the TGI (A549 NSCLC) was 14.7 µM. For the same molecule, the GI50 (NCI/ADR-RES ovarian) was 1.89 µM, the TGI (NCI/ADR-RES ovarian) was 8.45 µM and the GI50 (OVCAR-8 ovarian) was 0.118 µM. The TGI (OVCAR-8 ovarian) was 1.57 µM, the GI50 (MOLT-4 leukemia) was 0.061 µM and the TGI (MOLT-4 leukemia) was 1.28 µM. It also gave a GI50 (T-47D breast) of 0.252 µM, a TGI (T-47D breast) of 15.3 µM and a GI50 (M14 melanoma) of 0.262 µM. It also gave a TGI (M14 melanoma) of 12.1 µM, a GI50 (CAKI-1 renal) of 0.0449 µM and a TGI (CAKI-1 renal) of 7.15 µM. For the same molecule, the GI50 ([…]-0 renal) was 0.114 µM, the TGI (786-0 renal) was 12.6 µM and the GI50 (KM12 colon) was 0.471 µM. It also gave a TGI (KM12 colon) of 16.4 µM, a GI50 (SF-539 CNS) of 0.292 µM and a TGI (SF-539 CNS) of 12.5 µM. The GI50 (MCF7 breast) was 0.0543 µM, the TGI (MCF7 breast) was 12.4 µM and the GI50 (BT-549 breast) was 0.0417 µM. The TGI (BT-549 breast) was 1.78 µM, the GI50 (K-562 leukemia) was 0.133 µM and the TGI (K-562 leukemia) was 13.4 µM. It also gave a GI50 (SNB-75 CNS) of 0.367 µM, a TGI (SNB-75 CNS) of 13.7 µM and a GI50 (UACC-62 melanoma) of 0.0422 µM. It also gave a TGI (UACC-62 melanoma) of 2.96 µM, a GI50 (HCC-2998 colon) of 0.107 µM and a TGI (HCC-2998 colon) of 1.05 µM. The GI50 (PC-3 prostate) was 0.228 µM, the TGI (PC-3 prostate) was 14.6 µM and the GI50 (UO-31 renal) was 0.632 µM. The TGI (UO-31 renal) was 14.4 µM, the GI50 (SW-620 colon) was 1.18 µM and the TGI (SW-620 colon) was 18.5 µM. It also gave a GI50 (RXF 393 renal) of 0.74 µM, a TGI (RXF 393 renal) of 4.39 µM and a GI50 (MDA-MB-231 breast) of 0.0816 µM. For the same molecule, the TGI (MDA-MB-231 breast) was 14.3 µM, the GI50 (NCI-H226 lung) was 0.0983 µM and the TGI (NCI-H226 lung) was 8.21 µM. For the same molecule, the GI50 (HT29 colon) was 0.104 µM, the TGI (HT29 colon) was 2.08 µM and the GI50 (A498 renal) was 0.38 µM. The TGI (A498 renal) was 10.4 µM, the GI50 (OVCAR-3 ovarian) was 0.0666 µM and the TGI (OVCAR-3 ovarian) was 1.91 µM. The GI50 (HOP-92 NSCLC) was 0.156 µM, the TGI (HOP-92 NSCLC) was 11.5 µM and the GI50 (HCT-15 colon) was 0.247 µM. The TGI (HCT-15 colon) was 7.33 µM, the GI50 (EKVX NSCLC) was 3.09 µM and the TGI (EKVX NSCLC) was 20.1 µM. The GI50 (SF-295 CNS) was 0.803 µM, the TGI (SF-295 CNS) was 13.1 µM and the GI50 (U251 glioblastoma) was 0.644 µM. It also gave a TGI (U251 glioblastoma) of 14.6 µM, a GI50 (HL-60(TB) leukemia) of 0.0114 µM and a TGI (HL-60(TB) leukemia) of 0.0446 µM. The GI50 (HCT-116 colon) was 0.235 µM, the TGI (HCT-116 colon) was 12.5 µM and the GI50 (RPMI-8226 leukemia) was 0.0231 µM. It also gave a TGI (RPMI-8226 leukemia) of 0.153 µM, a GI50 (SK-MEL-28 melanoma) of 0.581 µM and a TGI (SK-MEL-28 melanoma) of 15.7 µM. It also gave a GI50 (CCRF-CEM leukemia) of 0.106 µM, a TGI (CCRF-CEM leukemia) of 8 µM and a GI50 (MDA-MB-435 melanoma) of 1.03 µM. It also gave a TGI (MDA-MB-435 melanoma) of 12.6 µM, a GI50 (ACHN renal) of 0.877 µM and a TGI (ACHN renal) of 15.6 µM. The GI50 (HOP-62 NSCLC) was 0.158 µM, the TGI (HOP-62 NSCLC) was 3.9 µM and the GI50 (SF-268 CNS) was 0.627 µM. It also gave a TGI (SF-268 CNS) of 12.8 µM, a GI50 (OVCAR-4 ovarian) of 0.128 µM and a TGI (OVCAR-4 ovarian) of 0.798 µM. The GI50 (TK-10 renal) was 0.154 µM, the TGI (TK-10 renal) was 3.7 µM and the GI50 (SN12C renal) was 0.42 µM. It also gave a TGI (SN12C renal) of 13.1 µM, a GI50 (SNB-19 CNS) of 0.355 µM and a TGI (SNB-19 CNS) of 16.7 µM. It also gave a GI50 (NCI-H522 lung) of 0.0624 µM and a TGI (NCI-H522 lung) of 0.73 µM.
